Tested on: white rabbit
Experiment: intraocular pressure-lowering effect of single and combined eye drop administration in white rabbits
Assay type: in vivo
Conditions: for IOP: intraocular pressure, 0 h: initial intraocular pressure immediately before application; for IOP: intraocular pressure, 0 h / IOP: intraocular pressure, 0.5 h / IOP: intraocular pressure, 1 h: n = 10, Compound 1 0.4% 50 μL, brimonidine 0.1% 50 μL; for IOP: intraocular pressure, 0.5 h: 0.5 h after application; for IOP: intraocular pressure, 1 h: 1 h after application
Experimental: To investigate the usefulness of the combination of (S)-(−)-1-(4-fluoro-5-isoquinolinesulfonyl)-2-methyl-1,4-homopiperazine (Compound 1) and an α2 agonist, intraocular pressure-lowering effect was compared between the case where each drug was singly administered to an experimental animal and the case where the drugs were administered to an experimental animal in combination.
(S)-(−)-1-(4-fluoro-5-isoquinolinesulfonyl)-2-methyl-1,4-homopiperazine hydrochloride dihydrate was dissolved in physiological saline, and the solution was then neutralized (pH 6.0) with addition of sodium dihydrogen phosphate and sodium hydroxide to prepare a solution of Compound 1 at a desired concentration.
Commercially available brimonidine (Senju Pharmaceutical Co., Ltd., AIPHAGAN eye drop 0.1%) was directly used.
The intraocular pressure-lowering effect of combined administration of Compound 1 and brimonidine was investigated. As controls, the intraocular pressure-lowering effect of single administration of Compound 1 and that of single administration of brimonidine were further investigated.
Solution of Compound 1: 0.4% solution (amount of application: 50 μL)
Brimonidine: 0.1% eye drop (amount of application: 50 μL)
Experimental animal: white rabbit (sex: male, 10 rabbits per group)
1) One drop of […] oxybuprocaine hydrochloride eye drop (trade name: Benoxil 0.4% solution) was applied to both eyes of an experimental animal for local anesthesia (data were acquired only from the eye to which the eye drop was applied).
2) The intraocular pressure was measured immediately before administration of a solution of a test compound, and the measurement was used as the initial intraocular pressure.
3) The solution of Compound 1 was applied to one eye of the experimental animal, and subsequently the solution of brimonidine was applied to the same eye.
4) One drop of the 0.4% oxybuprocaine hydrochloride eye drop was applied to each eye for local anesthesia 0.5 hours, 1 hour, 2 hours, 3 hours, 4 hours, and 5 hours after the application of the agents, and the intraocular pressure was then measured.
Compound 1 was singly applied, and a test was performed at the same measurement times as in the combined administration test.
A test was performed using the same method as in the single administration test except that the test solution in the single administration of Compound 1 was replaced with that of brimonidine.
The intraocular pressure was represented as an amount of change from the initial intraocular pressure. For statistical processing, Stat Preclinica Client 1.1 with parametric Tukey's multiple comparison was used.

Structure (SMILES)	IOP: intraocular pressure, 0 h [mmHg]	IOP: intraocular pressure, 0.5 h [mmHg]	IOP: intraocular pressure, 1 h [mmHg]	intraocular pressure-lowering action 0.5 hours after application of an eye drop (in words) (0.5 hours after application)
C[C@H]1CNCCCN1S(=O)(=O)c1cccc2cncc(F)c12 [Compound 1, (S)-(−)-1-(4-fluoro-5-isoquinolinesulfonyl)-2-methyl-1,4-homopiperazine]	26.5 ± 0.8	20.5 ± 1.2	15.9 ± 1.0	–
Brc1c(NC2=NCCN2)ccc2nccnc12 [Brimonidine, brimonidine]	24.2 ± 1.3	25.2 ± 0.9	19.4 ± 1.2	no intraocular pressure-lowering action

Reference: patent US20200038397A1, “PHARMACOTHERAPY FOR PREVENTING OR TREATING GLAUCOMA” (KOWA COMPANY, LTD., priority 2014, published 2020)
